From patent US7208154B2, “Methods and compositions for the treatment of MHC-associated conditions” (Regents of the University of Michigan, priority 2002, dated 2007)
Like-named read-outs stand apart in the source and are kept apart here.

Key:
[1] = tested on: human fibroblastoid line M1 cells; conditions: M1 cells preincubated overnight with 50 μg/ml synthetic pentapeptide
calreticulin = target: T1, calreticulin (Homo sapiens, UniProt P27797); experiment: Blocking of shared epitope peptide-triggered signaling (cAMP-inhibitory effect, genoprotection) in M1 cells; type: cell-based; parameters: endogenous in cells; host or cells: M1 human fibroblastoid cells; conditions: M1 cells pre-incubated or transfected
T1 sequence (P27797 18-417): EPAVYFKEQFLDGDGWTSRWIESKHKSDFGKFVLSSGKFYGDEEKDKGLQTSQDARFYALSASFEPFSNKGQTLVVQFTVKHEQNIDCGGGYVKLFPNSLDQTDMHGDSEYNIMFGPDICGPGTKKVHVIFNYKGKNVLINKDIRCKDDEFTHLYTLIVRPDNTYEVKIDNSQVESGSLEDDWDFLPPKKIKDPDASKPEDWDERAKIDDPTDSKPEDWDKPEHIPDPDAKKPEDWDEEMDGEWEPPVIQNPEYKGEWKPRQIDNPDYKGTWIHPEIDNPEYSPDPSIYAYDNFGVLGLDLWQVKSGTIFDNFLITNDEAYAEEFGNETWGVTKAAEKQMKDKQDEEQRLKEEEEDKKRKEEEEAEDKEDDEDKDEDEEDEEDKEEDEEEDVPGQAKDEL
Procedure: Finally, in order to determine whether these neuroprotective peptides transduce their signaling through calreticulin, two complementing protocols were executed: i) Inhibition of peptide-calreticulin interaction using anti-calreticulin antibodies, or ii) blocking calreticulin expression with antisense oligonucleotides (as shown in FIG. 13C and FIG. 13D).
M1 cells were cultured in 6-well plate to 60–70% confluency. M1 cells were treated by 0.2 μM antisense oligonucleotide for 24 to 48 hr, using Lipofectin as a carrier. Calreticulin expression levels were determined by Western-blot and flow cytometry, using anti-calreticulin antibodies. Polyclonal rabbit anti-human calreticulin antibodies were obtained from ABR, Golden, CO.

Substance	Inhibition of cAMP-dependent (2CA-induced) DNA repair induction / genoprotective pathway by pentapeptide [1]	Inhibition of cAMP-dependent (2CA-induced) DNA repair induction / genoprotective pathway by pentapeptide ([1]; listed as #7)	Block of shared epitope peptide-triggered signaling / inhibitory effect on genoprotection (calreticulin)
DKCLA [Asp Lys Cys Leu Ala]	biologically inactive	failed to do so	prevented
Gln Lys Arg Ala Glu (QKRAE)	failed to do so	–	–
